Strand notation (5' to 3'): a small letter for the sugar, then the base; units joined by * are phosphorothioate-linked, units joined directly phosphodiester-linked; [ ] holds rarer units or linkages, { } end groups; capitals alone tell only the bases. {m7G-cap} = 7-methylguanosine cap added chemically (m7GDP-imidazolide) to the 5'-phosphate; e = 2'-O-(2-methoxyethyl) (MOE); [I] = hypoxanthine (inosine); d = 2'-deoxy (DNA); m = 2'-O-methyl; r = 2'-OH (RNA); {P} = phosphate; f = 2'-fluoro
Tests used:
[1] = tested on: HeLa cells; test: Time-course dual luciferase assay of modified Firefly luciferase mRNA (Renilla control); assay type: cell-based; conditions: for Effect of cap/5′ UTR modification on protein production / translation / Protein expression (Firefly luciferase luminescence normalized to Renilla, then to m7G-rG), fold increase: HeLa cells; for Effect of cap/5′ UTR modification on protein production / translation: Fluc reporter, result in words; for Protein expression (Firefly luciferase luminescence normalized to Renilla, then to m7G-rG), fold increase: 8-, 24-, 48-hours post-transfection, benchmark m7G-rG
Description: The modularity of this workflow enabled divergent construction and evaluation of mRNAs featuring four different types of cap and 5′ UTR modifications (FIG. 8A): (1) base identities within the 5′ UTR, including as locations beyond the third base (+3 position), (2) phosphodiester linkages within the 5′ UTR, (3) sugar backbone modifications within the 5′ UTR, and (4) cap modifications. The effects of all of these different types of modifications on protein translation were assayed using Firefly luciferase reporter at 8-, 24-, and 48-hours post-transfection.
HeLa cells [ATCC, CCL-2] were maintained in DMEM culture media [ThermoFisher Scientific, 119951] containing 10% FBS and 1% penicillin-streptomycin [ThermoFisher Scientific, 15070063] in a 37° C. incubator with 5% CO2 and passaged at a ratio of 1:10 every 3 days. On the day before mRNA transfection, HeLa cells were seeded at 90% confluence in individual wells on 24-well plates. The following day, 50 ng of Renilla luciferase (internal control) mRNA and 50 ng of modified Firefly luciferase mRNA were transfected using Lipofectamine MessengerMAX Transfection Reagent [ThermoFisher Scientific, LMRNA003] per manufacturer's protocols. Additional controls that contain only Renilla luciferase mRNA or lipofection reagent only were included. Three individual transfections were conducted for each condition. 6 hours after transfection, the transfection media was removed, and cells were trypsinized and reseeded to three white clear-bottom 96-well plates [Corning, 3610] in phenol-red-free media. At 8-, 24-, and 48-hours post-transfection, cell culture media was removed and cells were rinsed with DPBS. Cells were lysed and luciferase activity was measured using the Promega Dual Glo Luciferase Assay System [Promega, E2920]. Firefly luminescence/Renilla luminescence for each well was used as mRNA activity readout. In cases where Nluc and Fluc were used, the protocol was conducted similarly using the Nano-Glo Dual-Luciferase Reporter Assay System [Promega, N1610].

[2] = biological target: T1, eIF4E (Homo sapiens, UniProt P06730); test: eIF4E electrophoretic mobility shift assay (EMSA); assay type: binding; conditions: AF647-labeled capped oligos, read-out: eIF4E dissociation constant (Kd)
T1 construct: His; purchased Cayman Chemical Inc 25150
T1 sequence (P06730 whole entry): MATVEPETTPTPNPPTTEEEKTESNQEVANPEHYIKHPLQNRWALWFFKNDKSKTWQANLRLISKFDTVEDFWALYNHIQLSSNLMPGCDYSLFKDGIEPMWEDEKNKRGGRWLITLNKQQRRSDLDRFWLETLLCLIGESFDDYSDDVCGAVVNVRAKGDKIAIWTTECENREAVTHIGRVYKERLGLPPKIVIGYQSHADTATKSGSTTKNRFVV
Description: eIF4E affinity to fluorophore-labeled capped RNA oligonucleotides was quantified through electrophoretic mobility shift assay (EMSA) (FIGS. 14D and 9A-9E).
Capped oligonucleotides were labeled on the 3′ end using AF647 labeled cytidine-5′-phosphate-3′-(6-aminohexyl) phosphate [Jena Bioscience, NU-1706-AF647] and T4 RNA ligase ligated AF647-labeled cytidine onto the capped oligos using manufacturer's protocols. Oligos were then incubated in the binding buffer (1 mM DTT, 50 mM KCl, 10 mM Tris-HCl (pH 7.6), Novex Hi-Density TBE Sample Buffer [Invitrogen, LC6678]) with varying eIF4E-His [Cayman Chemical Inc, 25150] concentrations prepared by sequential dilutions from the stock solution. The oligos and […] were incubated at 4° C. for 30 mins and characterized by EMSA with Novex TBE Gels, 4-20% [Invitrogen, EC6225BOX] at 4° C. AF647 labeled oligos were imaged with BioRad ChemiDoc MP Imaging System [12003154] and band intensities were quantified using ImageJ. For Kd calculation, the proportions of bound were plotted against eIF4E concentration using GraphPad Prism (Specific binding with Hill slope).

[3] = biological target: T2, human decapping enzyme 2 (hDcp2) (Homo sapiens, UniProt Q8IU60); test: hDcp2 decapping assay; assay type: biochemical; conditions: 23-nt capped oligos; result in words
T2 construct: purchased Enzymax LLC 86
Description: Next, the influence of modifications on decapping activity was examined. To this end, 23-nucleotide (23-nt) oligonucleotides with various modification patterns were subjected to decapping reactions and analyzed at different time intervals (FIGS. 14E and 9I).
500 ng of capped oligos were incubated in 75 μL decapping reaction buffer (10 mM Tris-HCl (pH 7.5), 100 mM NaCl, 2 mM MgCl2, 1 mM DTT, 2 mM MnCl2, 1:25 SUPERaseIn (v/v)) with 300 ng of hDcp2 [Enzymax LLC, 86] at 37° C. At indicated time points, 5 μL of reaction mixture was aliquoted out into 10 μL of denaturing gel-loading buffer [NEB, B0363S, with urea added to a final concentration of 5 M] and cooled to −20° C. until all time points were collected. The fractions were analyzed by PAGE using Novex 15% TBE-Urea gel [Invitrogen, EC6885BOX] by running at 100 V for 2 hours and stained by 1×SYBR Gold [ThermoFisher Scientific, S11494], and visualized using BioRad ChemiDoc MP Imaging System [12003154]. Band intensities were quantified using ImageJ.

| Substance | Effect of cap/5′ UTR modification on protein production / translation [1] | also measured |
| --- | --- | --- |
| construct 1: m7G cap; /5Phos/rArGrArGrArArUrArArArArA (SEQ ID NO: 2) (AGAGAAUAAAAA; m7G cap, 5' phosphate; modified_base 1 OTHER; 5'-phosphate modified nucleotide) | A>G~C~U | – |
| construct 2: m7G cap; /5Phos/rUrGrArGrArArUrArArArArA (SEQ ID NO: 3) (UGAGAAUAAAAA; m7G cap, 5' phosphate; modified_base 1 OTHER; 5'-phosphate modified nucleotide) | A>G~C~U | – |
| construct 3: m7G cap; /5Phos/rCrGrArGrArArUrArArArArA (SEQ ID NO: 4) (CGAGAAUAAAAA; m7G cap, 5' phosphate; modified_base 1 OTHER; 5'-phosphate modified nucleotide) | A>G~C~U | – |
| construct 4: m7G cap; /5Phos/rIrGrArGrArArUrArArArArA (SEQ ID NO: 5) ({P}-r[I]rGrArGrArArUrArArArArA; m7G cap on the 5'-phosphate) | enhanced protein production | – |
| construct 5: m7G cap; /5Phos//iN6Me-rA/rGrArGrArArUrArArArArA (SEQ ID NO: 6) (AGAGAAUAAAAA; m7G cap; 5' phosphate; N6-methyl-A; modified_base 1 OTHER; 5'-phosphate modified N6-methyladenosine) | enhanced protein production | – |
| construct 8: m7G cap; /5Phos//i2FA/rGrArGrArArUrArArArArA (SEQ ID NO: 9) ({P}-fArGrArGrArArUrArArArArA; m7G cap on the 5'-phosphate) | hindered translation | – |
| construct 9: m7G cap; /5Phos//ibetaL-rA/rGrArGrArArUrArArArArA (SEQ ID NO: 10) (AGAGAAUAAAAA; m7G cap; 5' phosphate; beta-L-A; modified_base 1 OTHER; 5'-phosphate modified L-adenosine) | negligible changes | – |
| construct 10: m7G cap; /5Phos/ArGrArGrArArUrArArArArA (SEQ ID NO: 11) ({m7G-cap}-dArGrArGrArArUrArArArArA) | negligible changes | – |
| construct 12: m7G cap; /5Phos//i2MOErA/rGrArGrArArUrArArArArA (SEQ ID NO: 13) ({m7G-cap}-eArGrArGrArArUrArArArArA) | – | Protein expression (Firefly luciferase luminescence normalized to Renilla, then to m7G-rG), fold increase [1]: 4.8 fold |
| construct 16: m7G cap; /5Phos//i2MOErA//i2MOErG//i2MOErA//i2MOErG//i2MOErA//i2MOErA/rUrArArArArA (SEQ ID NO: 17) ({P}-eAeGeAeGeAeArUrArArArArA; m7G cap on the 5'-phosphate) | – | Protein expression (Firefly luciferase luminescence normalized to Renilla, then to m7G-rG), fold increase [1]: 5.4 fold |
| construct 18: Bn7G cap; /5Phos/rArGrArGrArArUrArArArArA (SEQ ID NO: 19) (AGAGAAUAAAAA; Bn7G cap, 5' phosphate; modified_base 1 OTHER; 5'-phosphate modified nucleotide) | did not outperform m7G | – |
| construct 19: ClBn7G cap; /5Phos/rArGrArGrArArUrArArArArA (SEQ ID NO: 20) (AGAGAAUAAAAA; ClBn7G cap, 5' phosphate; modified_base 1 OTHER; 5'-phosphate modified nucleotide) | did not outperform m7G | – |
| construct 20: ClBnOEt7G cap; /5Phos/rArGrArGrArArUrArArArArA (SEQ ID NO: 21) (AGAGAAUAAAAA; ClBnOEt7G cap, 5' phosphate; modified_base 1 OTHER; 5'-phosphate modified nucleotide) | did not outperform m7G | – |
| construct 21: LNAm7G cap; /5Phos/rArGrArGrArArUrArArArArA (SEQ ID NO: 22) ({P}-rArGrArGrArArUrArArArArA; LNA-modified m7G cap on the 5'-phosphate) | – | Protein expression (Firefly luciferase luminescence normalized to Renilla, then to m7G-rG), fold increase [1]: 4.5 fold |
| construct 24: LNAm7G cap; /5Phos/mAmGmAmGmAmArUrArArArArA (SEQ ID NO: 25) ({P}-mAmGmAmGmAmArUrArArArArA; LNA-modified m7G cap on the 5'-phosphate) | – | Protein expression (Firefly luciferase luminescence normalized to Renilla, then to m7G-rG), fold increase [1]: 7.5 fold; Kd [2]: 1570 ± 116 nM |
| construct 26: m7G-capped azide oligo /5Phos/rArGrArGrArUrArA/3AzideN/ clicked to uncapped rArArA/i5OCTdU/rArArArArArA (SEQ ID NO: 33) (AAATAAAAAA; m7G-capped azide oligo clicked to internal octyne-dU; modified_base 4 OTHER; 5-Octadiynyl modified uracil; misc_feature 1..3 RNA; misc_feature 4 DNA; misc_feature 5..10 RNA) | – | Translation of branched / dual-capped Fluc mRNA (bioluminometry), result in words ([1]; topological screening: OU handle position, branching point, branch length, PS): effectively induce mRNA translation |
| construct 28: m7G cap; OU handle only; /5Phos/rArGrArUrArArA/i5OCTdU/rArArArArArA (SEQ ID NO: 38) (AGATAAATAAAAAA; m7G cap; internal octyne-dU handle; modified_base 1 OTHER; 5'-phosphate modified nucleotide; modified_base 8 OTHER; 5-Octadiynyl modified uracil; misc_feature 1..7 RNA; misc_feature 8 DNA; misc_feature 9..14 RNA) | – | Kd [2]: 2210 nM |
| construct 42: dual LNAm7G-capped; /5Phos/rArGrArGrArUrArA/3AzideN/ clicked to /5Phos/rArGrArUrArArA/i5OCTdU/rArArArArArA (SEQ ID NO: 120) (AGATAAATAAAAAA; dual LNA-m7G caps via click branch; modified_base 1 OTHER; 5'-phosphate modified nucleotide; modified_base 8 OTHER; 5-Octadiynyl modified uracil; misc_feature 1..7 RNA; misc_feature 8 DNA; misc_feature 9..14 RNA) | – | Kd [2]: 1280 nM |
| construct 43: m7G cap; /5Phos/mAmGmAmGmAmAmUmAmAmAmAmAmAmGmGmGmAmAmUmAmAmAmC (SEQ ID NO: 26) ({P}-mAmGmAmGmAmAmUmAmAmAmAmAmAmGmGmGmAmAmUmAmAmAmC; m7G cap on the 5'-phosphate) | – | Susceptibility / resistance to hDcp2 decapping [3]: increased decapping resistance to a similar level as LNA modification |

— US20260263638A1, “COMPOSITIONS AND METHODS TO IMPROVE RNA PROPERTIES USING BASE, PHOSPHODIESTER LINKAGE, SUGAR BACKBONE, AND CAP MODIFICATIONS” (The Broad Institute, Inc., priority 2023, published 2026)
